According to patent US12404304B1, “Telomerase reverse transcriptase (TERT) expression enhancing compounds and methods for using the same” (Sierra Sciences, LLC, priority 2007, dated 2025):
Read-outs that look alike come from different tables or passages of the source.

Tests used:
[1] = tested on: human TERT expression (hTERT mRNA); experiment: Quantitative real-time RT-PCR of hTERT mRNA expression (Ct, transcripts) in compound-treated cells; assay type: cell-based
Procedure, shortened: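 Read-out is cycle threshold, the cycle at which probe fluorescence released by Taq 5′-nuclease activity crosses a set level; Ct falls as hTERT mRNA rises. cDNA of treated and untreated cells was compared, with starting transcripts quantified against a known-cDNA standard curve.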

viable cells in culture = experiment: Cell viability assay (CellTiter-Glo Luminescent Cell Viability Assay, ATP quantitation, percent of vehicle control)
Experimental: Cell viability is determined using a homogeneous method, such as CellTiter-Glo® Luminescent Cell Viability Assay (Promega Corporation, Madison, WI.) to determine the number of viable cells in culture These assays are based on quantitation of the ATP present, which signals the presence of metabolically active cells. Luminescent values of compound treated cells are compared to that of cells treated with vehicle alone to determine the average cell viability as a percent of control.

SMILES | Average Number of hTERT Transcripts ([1]; quantitative real-time RT-PCR) | Average Cell Viability after 24 Hours (% DMSO) (viable cells in culture) | Average Number of hTERT Transcripts [1]
CC(C)CN1CC23C=CC(O2)C(C(=O)OCc2ccccc2)C3C1=O (centres unmarked) [compound 1347] | 12.01 | 118.20 % DMSO | –
CCOC(=O)CSc1nc(C)c(CC)c(C)c1C(N)=O [compound 1348] | 5.97 | 106.19 % DMSO | –
O=C(CCN1C(=O)c2cccc3cccc(c23)C1=O)Nc1ccon1 [compound 1349] | 12.52 | 76.50 % DMSO | –
CC(C)Cc1nnc(SCC(=O)Nc2ccc(Br)cn2)[nH]1 [compound 1350] | 5.91 | 98.43 % DMSO | –
CC1CCN(C(=O)CN(Cc2ccc(F)cc2)S(C)(=O)=O)CC1 [compound 1351] | 5.17 | 98.19 % DMSO | –
CC(C)COc1ccc(NC(=O)C2CC2)cc1 [compound 1352] | 5.61 | 83.84 % DMSO | –
Cc1ccc(NC(=O)NCc2ccccc2F)cc1C [compound 1353] | 3.61 | 87.98 % DMSO | –
O=C(O)/C=C1\NC(=O)c2ccccc21 [compound 1354] | 14.31 | 96.80 % DMSO | –
O=C(O)CC12CC3CC(C1)CC(CC(=O)O)(C3)C2 [compound 1355] | 4.95 | 95.78 % DMSO | –
O=C(NCCc1ccncc1)C(F)(F)F [compound 1356] | 5.18 | 101.39 % DMSO | –
COC(=O)c1cc(OC)c(OC)cc1NC(=S)N1CCN(C)CC1 [compound 1357] | 9.07 | 95.29 % DMSO | –
CNC(=O)C1CCN(Cc2ccc(F)cc2)CC1 [compound 1358] | 7.53 | 111.88 % DMSO | –
CCCn1c(=O)n(CC)c(=O)c2ccccc21 [compound 1359] | 13.21 | 104.81 % DMSO | –
CCOc1ccc(N2C(=O)CC(N3CCC4(CC3)OCCO4)C2=O)cc1 (centres unmarked) [compound 1360] | 16.98 | 108.82 % DMSO | –
CSc1nc2nc(C)c(C(C)=O)c(C)n2n1 [compound 1361] | 17.57 | 109.24 % DMSO | –
CCCOc1ccc2c(c1)c1c3n2CCN(C)C3=NCC1 [compound 1362] | 15.20 | 75.90 % DMSO | –
CC1(C)CC(NC(=O)c2ccc(S(=O)(=O)N3CCOCC3)cc2)CC(C)(C)N1 [compound 1363] | 32.11 | 89.56 % DMSO | –
Cc1ccc(N2CC(C(=O)N3CC(C)CC(C)C3)CC2=O)c(C)c1 (centres unmarked) [compound 1364] | 9.06 | 104.57 % DMSO | –
Cc1ccc(N2CC(C(=O)N3CCCC3)CC2=O)c(C)c1 (centres unmarked) [compound 1365] | 10.67 | 99.89 % DMSO | –
CCc1nc2[nH]c3c(c(=O)n2n1)CCC3 [compound 1366] | 10.02 | 99.48 % DMSO | –
Nc1ccc(OCCCc2ccccc2)cc1 [compound 1367] | 7.25 | 94.27 % DMSO | –
C=C(C)Cn1c(CCO)nc2ccccc21 [compound 1368] | 9.25 | 106.63 % DMSO | –

SMILES | Average Number of hTERT Transcripts ([1]; quantitative real-time RT-PCR) | Average Cell Viability after 24 Hours (% DMSO) (viable cells in culture) | Average Number of hTERT Transcripts [1]
Cc1nn2c(-c3cccnc3)nnc2s1 [compound 1369] | 15.35 | 98.38 % DMSO | –
C=CCNS(=O)(=O)c1ccc(C(=O)N2CCCCC2C)cc1 (centres unmarked) [compound 1370] | – | 107.18 % DMSO | 11.58
CCC(=O)Nc1c(Br)cc(C)cc1C(=O)O [compound 1371] | – | 105.87 % DMSO | 5.46
O=S(=O)(Nc1cccc2cccnc12)N1CCCCCC1 [compound 1373] | – | 65.74 % DMSO | 37.20
Cc1ccccc1NC(=O)C1CC(Cl)=CCC1C(=O)O (centres unmarked) [compound 1374] | – | 107.65 % DMSO | 5.48
CCC(C)NC(=S)Nc1ccc([N+](=O)[O-])cc1 (centres unmarked) [compound 1375] | – | 92.06 % DMSO | 11.45
Cc1ccccc1NC(=O)C1CCN(S(=O)(=O)c2ccc(Br)cc2)CC1 [compound 1376] | – | 88.77 % DMSO | 4.72
CC(C)C(=O)NC(c1ccc(C(C)C)cc1)c1ccc2ccccc2c1O (centres unmarked) [compound 1377] | – | 67.09 % DMSO | 10.23
CCC(C)c1ccccc1OCCCCN1CCN(C)CC1 (centres unmarked) [compound 1378] | – | 89.06 % DMSO | 11.15
O=C(O)c1ccc(NC(=S)NC(=O)c2cccc(Cl)c2)cc1 [compound 1379] | – | 82.14 % DMSO | 12.37
Brc1cccc(OCCCN2CCCCC2)c1 [compound 1380] | – | 104.34 % DMSO | 5.98
COc1ccc(C(=O)NC(=S)Nc2ccc(C(=O)O)cc2)cc1 [compound 1381] | – | 87.38 % DMSO | 8.62
COc1ccc(OCCCN2CCN(c3ccccc3OC)CC2)cc1 [compound 1382] | – | 98.31 % DMSO | 6.08
O=C(O)c1ccc(NC(=S)NC(=O)c2cccc3ccccc23)cc1 [compound 1383] | – | 74.00 % DMSO | 53.78
O=C(O)c1ccc(NC(=S)NC(=O)c2ccccc2I)cc1 [compound 1384] | – | 84.52 % DMSO | 7.88
O=[N+]([O-])c1ccc(S(=O)(=O)Nc2cc(Cl)ccc2O)cc1 [compound 1385] | – | 78.86 % DMSO | 21.71
O=C(Nc1ccc(OC(F)(F)C(F)F)cc1)c1ccccc1O [compound 1386] | – | 30.71 % DMSO | 11.93
COC(=O)COc1ccc(CSc2nnc(-c3ccc(Cl)cc3)n2-c2ccccc2)cc1 [compound 1388] | – | 29.68 % DMSO | 42.56
CN1CCCC(OC(=O)COc2ccc(F)cc2)C1 (centres unmarked) [compound 1389] | – | 93.93 % DMSO | 9.17
Cc1ccc(C)c(OCC(=O)Nc2cc(Cl)c(Cl)cc2Cl)c1 [compound 1390] | – | 106.51 % DMSO | 4.81
CC(=O)Nc1ccccc1NS(=O)(=O)c1cccs1 [compound 1391] | – | 87.67 % DMSO | 4.95
